The text below walks through data of ChEMBL document CHEMBL1201862, “PubChem BioAssay data set” (2004).

Test systems include RXF 393; DU-145; MOLT-4; 786-0; Malme-3M; A498; NCI/ADR-RES; MDA-N; UACC-62; CAKI-1; COLO 205; EKVX; SF-539; CCRF-CEM; NCI-H460; K562; SR.
Holding throughout (test): NCI anticancer screen, dose series, 48 h

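Cultured in 96-well plates, cells were exposed to test compound for 48 hours across five concentrations. GI50 = concentration required for 50% inhibition of growth.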 Activity calls are given as the source filed them. Rule as the data show it: active = GI50 up to about 1.1 µM and inactive = higher.

Consider `CC(=O)NC1C(Sc2ncn(C3OC(CO)C(O)C(O)C3NC(C)=O)n2)OC(CO)C(O)C1O` (configuration not stated), for which the GI50 in the assay on RXF 393, in the assay on DU-145, with MOLT-4, in the assay on 786-0, in the assay with Malme-3M and in the assay on A498 was > 100 µM (inactive) throughout. In addition, the GI50 with NCI/ADR-RES, in the assay with MDA-N, in the assay on UACC-62, with CAKI-1, in the assay on COLO 205 and with EKVX was > 100 µM (inactive) throughout. Besides, the GI50 in the assay with SF-539 was > 100 µM (inactive); in the assay with CCRF-CEM, 29 µM (inactive); in the assay on NCI-H460, > 100 µM (inactive).

With `O=[N+]([O-])c1ccc(C2c3c(O)nc(S)nc3Oc3nc(S)nc(O)c32)cc1`, the GI50 with RXF 393, in the assay with DU-145, in the assay on MOLT-4, in the assay on 786-0, in the assay with A498 and in the assay on NCI/ADR-RES was > 100 µM (inactive) in each case. Further, the GI50 in the assay on MDA-N, with UACC-62, with CAKI-1, with COLO 205, with EKVX and with K562 was > 100 µM (inactive) each time. Besides, the GI50 in the assay with CCRF-CEM and in the assay on NCI-H460 was > 100 µM (inactive) each time.

For the compound `O=[N+]([O-])/C=C/c1ccc2ccccc2c1`, the GI50 is 2.49 µM (inactive) in the assay with RXF 393; 4.07 µM (inactive) in the assay with DU-145; 2.85 µM (inactive) with 786-0; 15.6 µM (inactive) with Malme-3M; 13 µM (inactive) with A498; 0.436 µM (active) in the assay on SR. In addition, the GI50 in the assay on NCI/ADR-RES is 4.27 µM (inactive); with UACC-62, 15.4 µM (inactive); in the assay with CAKI-1, 8.43 µM (inactive); in the assay on COLO 205, 2.29 µM (inactive); with EKVX it was 22.7 µM (inactive); in the assay on SF-539 it was 3.04 µM (inactive). In addition, the GI50 was 3.78 µM (inactive) with K562, 4.61 µM (inactive) with CCRF-CEM and 6.81 µM (inactive) in the assay on NCI-H460.

In the case of `CCOP(=O)(O)C1C(CO)OC(n2ccc(=O)[nH]c2=O)C1O` (configuration not stated), the GI50 in the assay with RXF 393, in the assay on MOLT-4, in the assay on 786-0, with Malme-3M, in the assay with A498 and with SR was > 100 µM (inactive) each time. The GI50 in the assay with MDA-N, in the assay on UACC-62, with CAKI-1, with EKVX, in the assay on SF-539 and in the assay on K562 was > 100 µM (inactive) in each case. For the same compound, the GI50 in the assay with CCRF-CEM and in the assay with NCI-H460 was > 100 µM (inactive) in each case.

`S=C(NN=C1NCCCCN1)Nc1ccc(Cl)cc1`: the GI50 with RXF 393 is > 100 µM (inactive); in the assay with MOLT-4 it was 6.67 µM (inactive); with 786-0, 7.35 µM (inactive); with Malme-3M, 17.1 µM (inactive); in the assay with A498, 33 µM (inactive); in the assay on SR, 11.8 µM (inactive). For the same compound, the GI50 in the assay on NCI/ADR-RES was 23.4 µM (inactive); with MDA-N it was 11.4 µM (inactive); in the assay with UACC-62 it was 4.52 µM (inactive); with CAKI-1, < 0.01 µM (active); in the assay with COLO 205 it was 13.1 µM (inactive); in the assay on EKVX, 31.9 µM (inactive). Further, the GI50 in the assay with SF-539 was 28.2 µM (inactive); in the assay on K562, 5.85 µM (inactive); with CCRF-CEM, 4.48 µM (inactive); with NCI-H460, 3.78 µM (inactive).

For the compound `Nn1c(CNc2ccc(-c3nnc(Nc4ccc(Cl)cc4)n3N)cc2)nnc1Nc1ccc(Cl)cc1`, the GI50 was > 100 µM (inactive) in the assay on RXF 393; > 100 µM (inactive) in the assay with DU-145; 55.7 µM (inactive) in the assay on MOLT-4; > 100 µM (inactive) in the assay with 786-0; > 100 µM (inactive) with Malme-3M; > 100 µM (inactive) in the assay on A498. The GI50 with NCI/ADR-RES is > 100 µM (inactive); in the assay on MDA-N it was 80.7 µM (inactive); in the assay with UACC-62, 50.9 µM (inactive); in the assay on CAKI-1 it was > 100 µM (inactive); in the assay on COLO 205, > 100 µM (inactive); in the assay with EKVX it was > 100 µM (inactive). Also, the GI50 in the assay with K562 was 67.9 µM (inactive); with NCI-H460, > 100 µM (inactive).

Regarding `CCc1nc(N)nc(N)c1-c1ccc([N+](=O)[O-])c(Cl)c1`, the GI50 in the assay on RXF 393 was 16.1 µM (inactive); in the assay with DU-145, 10.8 µM (inactive); in the assay with MOLT-4, 4.27 µM (inactive); with 786-0, 1.77 µM (inactive); in the assay with Malme-3M, > 100 µM (inactive); in the assay with A498 it was 27 µM (inactive). The GI50 with SR is 1.74 µM (inactive); with NCI/ADR-RES, 5.83 µM (inactive); in the assay on UACC-62, 1.73 µM (inactive); with CAKI-1 it was 4.55 µM (inactive); in the assay on COLO 205 it was 12.5 µM (inactive); in the assay with EKVX it was 5.74 µM (inactive). In addition, the GI50 in the assay with SF-539 was 3.76 µM (inactive); in the assay on K562, 0.227 µM (active); with CCRF-CEM it was 2.36 µM (inactive); in the assay on NCI-H460, 0.42 µM (active).

`CCC(=O)NI1OC(=O)c2ccccc21`: the GI50 is > 100 µM (inactive) with RXF 393; > 100 µM (inactive) in the assay on DU-145; > 100 µM (inactive) in the assay on MOLT-4; > 100 µM (inactive) in the assay with 786-0; > 100 µM (inactive) in the assay with A498; 36.9 µM (inactive) with SR. The GI50 with NCI/ADR-RES was > 100 µM (inactive); in the assay on UACC-62, > 100 µM (inactive); with CAKI-1 it was 21.6 µM (inactive); in the assay with COLO 205, > 100 µM (inactive); in the assay with EKVX, > 100 µM (inactive); with SF-539, > 100 µM (inactive). For the same compound, the GI50 in the assay with K562 was 48.5 µM (inactive); in the assay with CCRF-CEM it was 40.9 µM (inactive); with NCI-H460, > 100 µM (inactive).

`Cc1cc(C)c(C2CC(O)C(CO)O2)cc1C` (configuration not stated): the GI50 with MOLT-4 was > 100 µM (inactive); with 786-0, > 100 µM (inactive); in the assay on Malme-3M, > 100 µM (inactive); in the assay on SR, > 100 µM (inactive); in the assay with NCI/ADR-RES, 67.5 µM (inactive); with MDA-N, > 100 µM (inactive). For the same compound, the GI50 with UACC-62 is > 100 µM (inactive); with CAKI-1, > 100 µM (inactive); with COLO 205 it was > 10 µM (inactive); in the assay with EKVX it was > 100 µM (inactive); in the assay with SF-539 it was > 100 µM (inactive); in the assay on K562 it was > 100 µM (inactive). For the same compound, the GI50 in the assay with CCRF-CEM and in the assay on NCI-H460 was > 100 µM (inactive) throughout.

In the case of `O=C1c2ccccc2S(=O)(=O)c2c1cccc2[N+](=O)[O-]`, the GI50 is 2.9 µM (inactive) in the assay with RXF 393; 4.79 µM (inactive) in the assay on DU-145; 1.85 µM (inactive) in the assay on MOLT-4; 1.52 µM (inactive) in the assay with 786-0; 1.46 µM (inactive) in the assay on Malme-3M; 4.66 µM (inactive) with A498. Also, the GI50 in the assay with SR is 0.902 µM (active); with NCI/ADR-RES, 2.38 µM (inactive); in the assay with UACC-62, 1.72 µM (inactive); in the assay with CAKI-1, 4.21 µM (inactive); in the assay with COLO 205, 1.16 µM (inactive); in the assay with EKVX it was 3.35 µM (inactive). The GI50 in the assay with SF-539 was 1.94 µM (inactive); in the assay with K562 it was > 10 µM (inactive); with CCRF-CEM, 1.51 µM (inactive); in the assay on NCI-H460, > 5.83 µM (inactive).

For the compound `CCNc1ncnc2nn[nH]c12`, the GI50 with RXF 393, with DU-145, in the assay on MOLT-4, in the assay on 786-0, with Malme-3M and with A498 was > 100 µM (inactive) each time. The GI50 in the assay with NCI/ADR-RES, in the assay on MDA-N, in the assay with UACC-62, in the assay on CAKI-1, in the assay on COLO 205 and in the assay on EKVX was > 100 µM (inactive) throughout. The GI50 in the assay on SF-539, with K562 and in the assay with CCRF-CEM was > 100 µM (inactive) in each case.

As for `O=[N+]([O-])/C(C(Cl)=C(Cl)Cl)=C1\Nc2ccc([N+](=O)[O-])cc2N1`, the GI50 is > 100 µM (inactive) with DU-145; 45.1 µM (inactive) in the assay on MOLT-4; > 100 µM (inactive) with 786-0; 63.5 µM (inactive) with Malme-3M; > 100 µM (inactive) in the assay on A498; > 100 µM (inactive) in the assay with NCI/ADR-RES. Further, the GI50 with MDA-N is 75.3 µM (inactive); with UACC-62, > 100 µM (inactive); in the assay with CAKI-1, 72.1 µM (inactive); in the assay with COLO 205, > 100 µM (inactive); with EKVX it was > 100 µM (inactive); in the assay on K562 it was > 100 µM (inactive). For the same compound, the GI50 was 27.4 µM (inactive) with CCRF-CEM and > 100 µM (inactive) with NCI-H460.

On to `CCC(=O)C(CCN1CCC(N2C(=O)C(CCC#N)c3ccccc32)CC1)(c1ccccc1)c1ccccc1` (configuration not stated), for which the GI50 in the assay with RXF 393 is 3.37 µM (inactive); in the assay on DU-145, 12.2 µM (inactive); with MOLT-4, 4.56 µM (inactive); in the assay on 786-0, 12.3 µM (inactive); in the assay with Malme-3M, 12.1 µM (inactive); in the assay with A498, 23.2 µM (inactive). Moreover, the GI50 in the assay on SR is 0.0486 µM (active); in the assay on NCI/ADR-RES, 11.5 µM (inactive); in the assay on UACC-62, 15.6 µM (inactive); in the assay on CAKI-1, 21.9 µM (inactive); in the assay on COLO 205, 8.97 µM (inactive); in the assay on SF-539 it was 18.3 µM (inactive). Moreover, the GI50 was 3.8 µM (inactive) in the assay on K562 and 11.3 µM (inactive) with NCI-H460.
